Data from article PMC9403976, “Elucidating the path to Plasmodium prolyl-tRNA synthetase inhibitors that overcome halofuginone resistance” (Nature Communications, 2022).
“And” between values parts separate entries of the source, which are not always exact repeats. Equal entries are not always repeated. Where two headings read alike, the source gives them in different places.

Assays:
P. falciparum Dd2-2D4 = test: P. falciparum asexual blood stage (ABS) growth assay, SYBR Green, 72 h, wild-type parasites; assay type: cell-based, Plasmodium falciparum; settings: for ABS growth dose-response, normalized signal (Replicates 1-3) / parasite growth, dose-response point: Dd2-2D4; for parasite growth, dose-response point: single replicates
PfcProRS = target: T1, PfcProRS (Plasmodium falciparum, UniProt Q8I5R7); assay type: binding; settings: for dose-response signal (normalized), SI Fig 8: single replicates
T1 construct: made in house; host or cells: E. coli SoluBL-21

[1] = system: halofuginone-induced P. falciparum (elevated proline homeostasis); test: P. falciparum ABS growth assay, SYBR Green, 72 h, halofuginone-induced parasites; assay type: cell-based, Plasmodium falciparum; settings: for parasite growth, dose-response point: Halofuginone-Induced (HFG-Induced), single replicates
In short: (§1)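 Asexual blood-stage Dd2 parasites, 1% parasitemia/1% hematocrit, RPMI + 0.5% Albumax; triplicate dose-response, 72 h. Readout SYBR Green 1 fluorescence. Controls: 10 μM dihydroartemisinin (kill), no compound (growth). EC50 values determined.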

[2] = system: HFGR-I P. falciparum (elevated proline homeostasis and PfcProRS^L482H); test: P. falciparum ABS growth assay, SYBR Green, 72 h, HFGR-I parasites; assay type: cell-based, Plasmodium falciparum; settings: HFGR-I, single replicates
In short: as §1

HsProRS = HsProRS (Homo sapiens, UniProt P07814); test: TR-FRET ligand displacement assay with tracer MAT379 (CoraFluor-1-Halo and anti-His6 antibody formats); assay type: binding; design: made in house; host or cells: E. coli SoluBL-21; settings: for TR-FRET dose-response, normalized signal (SI Fig 11): individual replicates
Sequence of HsProRS (P07814 996-1512): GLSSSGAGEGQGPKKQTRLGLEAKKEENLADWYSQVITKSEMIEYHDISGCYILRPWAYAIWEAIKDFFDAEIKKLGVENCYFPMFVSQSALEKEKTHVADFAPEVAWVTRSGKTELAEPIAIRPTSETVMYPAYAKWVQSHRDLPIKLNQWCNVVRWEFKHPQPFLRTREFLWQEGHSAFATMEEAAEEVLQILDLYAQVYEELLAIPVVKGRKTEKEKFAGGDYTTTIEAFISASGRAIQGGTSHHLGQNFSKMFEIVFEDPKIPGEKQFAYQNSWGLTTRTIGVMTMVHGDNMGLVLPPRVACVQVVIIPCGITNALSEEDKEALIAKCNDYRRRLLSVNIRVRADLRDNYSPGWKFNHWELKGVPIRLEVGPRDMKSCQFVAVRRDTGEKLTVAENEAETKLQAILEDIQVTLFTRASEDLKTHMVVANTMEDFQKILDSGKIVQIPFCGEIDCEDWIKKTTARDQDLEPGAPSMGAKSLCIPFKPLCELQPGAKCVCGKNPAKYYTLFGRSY

T1 sequence (Q8I5R7 249-746): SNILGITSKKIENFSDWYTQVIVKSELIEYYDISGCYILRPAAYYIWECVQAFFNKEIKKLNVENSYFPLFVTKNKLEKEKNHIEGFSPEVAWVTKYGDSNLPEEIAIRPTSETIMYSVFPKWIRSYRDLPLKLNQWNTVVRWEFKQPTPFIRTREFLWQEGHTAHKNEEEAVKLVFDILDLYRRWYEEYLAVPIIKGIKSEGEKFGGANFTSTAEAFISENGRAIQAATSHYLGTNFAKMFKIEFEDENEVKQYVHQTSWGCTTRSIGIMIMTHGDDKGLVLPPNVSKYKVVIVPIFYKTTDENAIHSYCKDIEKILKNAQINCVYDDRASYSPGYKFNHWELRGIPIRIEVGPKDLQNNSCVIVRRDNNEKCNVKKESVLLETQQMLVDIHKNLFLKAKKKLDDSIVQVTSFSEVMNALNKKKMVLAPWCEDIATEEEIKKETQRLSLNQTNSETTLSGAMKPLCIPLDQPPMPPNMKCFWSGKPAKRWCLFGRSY

CC1(C(=O)Nc2nccnc2C(=O)NC2Cc3ccccc3C2)CCCCC1 [compound 4]
ABS growth dose-response, normalized signal (Replicates 1-3) (P. falciparum Dd2-2D4; Log[inhibitor] (M) -5.000): 0
parasite growth, dose-response point (P. falciparum Dd2-2D4; Log[inhibitor] (M) -5.000): 0
ABS growth dose-response, normalized signal (Replicates 1-3) (P. falciparum Dd2-2D4; Log[inhibitor] (M) -5.301): 0
parasite growth, dose-response point (P. falciparum Dd2-2D4; Log[inhibitor] (M) -5.301): 0
ABS growth dose-response, normalized signal (Replicates 1-3) (P. falciparum Dd2-2D4; Log[inhibitor] (M) -5.602): 0
parasite growth, dose-response point (P. falciparum Dd2-2D4; Log[inhibitor] (M) -5.602): 0
ABS growth dose-response, normalized signal (Replicates 1-3) (P. falciparum Dd2-2D4; Log[inhibitor] (M) -6.505): 8
parasite growth, dose-response point (P. falciparum Dd2-2D4; Log[inhibitor] (M) -6.505): 8
EC50 (P. falciparum Dd2-2D4; Plasmodium falciparum, DD2, SI Fig 16b, values on -log scale, read-out: ABS - Dd2-2D4 (converted)): 180 nM
dose-response signal (normalized), SI Fig 8 (PfcProRS; Log[inhibitor] (M) -5.000): 4.05E-02 and -1.19E-01 and -1.91E-02
dose-response signal (normalized), SI Fig 8 (PfcProRS; Log[inhibitor] (M) -5.301): -7.53E-02 and -2.32E-02 and 3.73E-02
dose-response signal (normalized), SI Fig 8 (PfcProRS; Log[inhibitor] (M) -5.601): -7.78E-02 and -2.66E-03 and -2.25E-02
dose-response signal (normalized), SI Fig 8 (PfcProRS; Log[inhibitor] (M) -5.904): 1.67E-02 and 2.48E-02 and 1.76E-02
dose-response signal (normalized), SI Fig 8 (PfcProRS; Log[inhibitor] (M) -6.208): 8.20E-02 and 4.30E-02 and 6.02E-02
dose-response signal (normalized), SI Fig 8 (PfcProRS; Log[inhibitor] (M) -6.509): 7.49E-03 and -2.38E-02 and -1.11E-02
dose-response signal (normalized), SI Fig 8 (PfcProRS; Log[inhibitor] (M) -6.796): 4.86E-02 and 3.80E-02 and -1.10E-02
dose-response signal (normalized), SI Fig 8 (PfcProRS; Log[inhibitor] (M) -7.108): 4.17E-02 and 7.57E-02 and 3.79E-02
dose-response signal (normalized), SI Fig 8 (PfcProRS; Log[inhibitor] (M) -7.409): 2.11E-01 and 1.42E-01 and 1.90E-01
dose-response signal (normalized), SI Fig 8 (PfcProRS; Log[inhibitor] (M) -7.710): 4.47E-01 and 2.93E-01 and 4.00E-01
dose-response signal (normalized), SI Fig 8 (PfcProRS; Log[inhibitor] (M) -8.000): 7.09E-01 and 7.29E-01 and 6.69E-01
dose-response signal (normalized), SI Fig 8 (PfcProRS; Log[inhibitor] (M) -8.301): 8.70E-01 and 9.23E-01 and 9.80E-01
dose-response signal (normalized), SI Fig 8 (PfcProRS; Log[inhibitor] (M) -8.602): 1.09E+00 and 9.73E-01 and 1.05E+00
dose-response signal (normalized), SI Fig 8 (PfcProRS; Log[inhibitor] (M) -9.000): 9.29E-01 and 9.06E-01 and 9.66E-01
dose-response signal (normalized), SI Fig 8 (PfcProRS; Log[inhibitor] (M) -9.301): 8.49E-01 and 1.04E+00 and 9.72E-01
PfcProRS -- best Kd (PfcProRS; SI Fig 16a, values on -log scale): 8.466
parasite growth, dose-response point ([1]; Log[inhibitor] (M) -5): 1
parasite growth, dose-response point ([1]; Log[inhibitor] (M) -5.408): 1
parasite growth, dose-response point ([1]; Log[inhibitor] (M) -5.816): 0 (2×) and 1
parasite growth, dose-response point ([1]; Log[inhibitor] (M) -6.222): 16 and 18 and 17
parasite growth, dose-response point ([1]; Log[inhibitor] (M) -6.638): 99 (2×) and 106
parasite growth, dose-response point ([1]; Log[inhibitor] (M) -7.046): 103 (2×) and 109
parasite growth, dose-response point ([1]; Log[inhibitor] (M) -7.45): 100 and 97
parasite growth, dose-response point ([1]; Log[inhibitor] (M) -7.854): 100 (2×) and 97
parasite growth, dose-response point ([1]; Log[inhibitor] (M) -8.26): 101 and 95 and 97
parasite growth, dose-response point ([1]; Log[inhibitor] (M) -8.699): 99 and 98 (2×)
parasite growth, dose-response point ([1]; Log[inhibitor] (M) -9): 96 (2×) and 97
parasite growth, dose-response point ([1]; Log[inhibitor] (M) -9.488): 98 and 95 and 102
dose-response value, Replicates 1-3 (SI Fig 2e) ([1]; Log[inhibitor] (M) -5.000): 1
dose-response value, Replicates 1-3 (SI Fig 2e) ([1]; Log[inhibitor] (M) -5.408): 1
parasite growth, dose-response point ([2]; Log[inhibitor] (M) -5): 6 and 7 (2×)
parasite growth, dose-response point ([2]; Log[inhibitor] (M) -5.408): 7 (2×) and 6
parasite growth, dose-response point ([2]; Log[inhibitor] (M) -5.816): 6 (2×) and 7
parasite growth, dose-response point ([2]; Log[inhibitor] (M) -6.222): 10 (2×) and 9
parasite growth, dose-response point ([2]; Log[inhibitor] (M) -6.638): 75 and 76 and 81
parasite growth, dose-response point ([2]; Log[inhibitor] (M) -7.046): 99 and 105 and 110
parasite growth, dose-response point ([2]; Log[inhibitor] (M) -7.45): 87 and 99 and 100
parasite growth, dose-response point ([2]; Log[inhibitor] (M) -7.854): 99 and 98 and 103
parasite growth, dose-response point ([2]; Log[inhibitor] (M) -8.26): 100 and 101 and 104
parasite growth, dose-response point ([2]; Log[inhibitor] (M) -8.699): 98 and 99 and 104
parasite growth, dose-response point ([2]; Log[inhibitor] (M) -9): 101 and 97 and 100
parasite growth, dose-response point ([2]; Log[inhibitor] (M) -9.488): 89 and 96 and 93
Kd (HsProRS; HsProRS (KD [nM]) −, absence of substrates, 250 nM MAT379): 221 nM
Kd (HsProRS; HsProRS - best Kd, SI Fig 16a, values on -log scale): 2.55 nM
normalized TR-FRET ligand displacement signal, dose-response replicates (SI Fig 6) (HsProRS; Log[inhibitor] (M) -5.000): 4.53E-02 and 6.57E-02 and 9.85E-02
TR-FRET dose-response, normalized signal (SI Fig 11) (HsProRS; Log[inhibitor] (M) -5.000): 6.99E-03 and -1.87E-02 and 8.97E-03
normalized TR-FRET ligand displacement signal, dose-response replicates (SI Fig 6) (HsProRS; Log[inhibitor] (M) -5.301): 8.38E-02 and 1.09E-01 and 1.45E-01
TR-FRET dose-response, normalized signal (SI Fig 11) (HsProRS; Log[inhibitor] (M) -5.301): 5.00E-02 and 2.79E-02 and 4.24E-02
normalized TR-FRET ligand displacement signal, dose-response replicates (SI Fig 6) (HsProRS; Log[inhibitor] (M) -5.601): 2.80E-01 and 1.33E-01 and 2.62E-01
TR-FRET dose-response, normalized signal (SI Fig 11) (HsProRS; Log[inhibitor] (M) -5.601): 1.01E-01 and 8.93E-02 and 1.03E-01
normalized TR-FRET ligand displacement signal, dose-response replicates (SI Fig 6) (HsProRS; Log[inhibitor] (M) -5.904): 4.58E-01 and 3.89E-01 and 4.73E-01
TR-FRET dose-response, normalized signal (SI Fig 11) (HsProRS; Log[inhibitor] (M) -5.904): 1.64E-01 and 2.16E-01 and 1.95E-01
normalized TR-FRET ligand displacement signal, dose-response replicates (SI Fig 6) (HsProRS; Log[inhibitor] (M) -6.208): 6.24E-01 and 6.52E-01 and 5.78E-01
TR-FRET dose-response, normalized signal (SI Fig 11) (HsProRS; Log[inhibitor] (M) -6.208): 2.83E-01 and 3.32E-01 and 2.85E-01
normalized TR-FRET ligand displacement signal, dose-response replicates (SI Fig 6) (HsProRS; Log[inhibitor] (M) -6.509): 8.00E-01 and 8.38E-01 and 8.01E-01
TR-FRET dose-response, normalized signal (SI Fig 11) (HsProRS; Log[inhibitor] (M) -6.509): 4.57E-01 and 4.64E-01 and 4.80E-01
normalized TR-FRET ligand displacement signal, dose-response replicates (SI Fig 6) (HsProRS; Log[inhibitor] (M) -6.796): 9.06E-01 and 8.75E-01 and 9.05E-01
TR-FRET dose-response, normalized signal (SI Fig 11) (HsProRS; Log[inhibitor] (M) -6.796): 6.22E-01 and 6.48E-01 and 6.15E-01
normalized TR-FRET ligand displacement signal, dose-response replicates (SI Fig 6) (HsProRS; Log[inhibitor] (M) -7.108): 9.19E-01 and 1.02E+00 and 8.47E-01
TR-FRET dose-response, normalized signal (SI Fig 11) (HsProRS; Log[inhibitor] (M) -7.108): 7.25E-01 and 7.35E-01 and 7.08E-01
normalized TR-FRET ligand displacement signal, dose-response replicates (SI Fig 6) (HsProRS; Log[inhibitor] (M) -7.409): 8.93E-01 and 1.05E+00 and 9.99E-01
TR-FRET dose-response, normalized signal (SI Fig 11) (HsProRS; Log[inhibitor] (M) -7.409): 8.57E-01 and 8.69E-01 and 8.79E-01
normalized TR-FRET ligand displacement signal, dose-response replicates (SI Fig 6) (HsProRS; Log[inhibitor] (M) -7.710): 9.69E-01 (2×) and 9.96E-01
TR-FRET dose-response, normalized signal (SI Fig 11) (HsProRS; Log[inhibitor] (M) -7.710): 9.21E-01 and 9.18E-01 and 9.07E-01
normalized TR-FRET ligand displacement signal, dose-response replicates (SI Fig 6) (HsProRS; Log[inhibitor] (M) -8.000): 1.02E+00 and 9.51E-01 and 1.08E+00
TR-FRET dose-response, normalized signal (SI Fig 11) (HsProRS; Log[inhibitor] (M) -8.000): 9.42E-01 and 9.60E-01 and 9.15E-01
normalized TR-FRET ligand displacement signal, dose-response replicates (SI Fig 6) (HsProRS; Log[inhibitor] (M) -8.301): 8.99E-01 and 1.00E+00 and 9.75E-01
TR-FRET dose-response, normalized signal (SI Fig 11) (HsProRS; Log[inhibitor] (M) -8.301): 9.32E-01 and 9.20E-01 and 9.46E-01
normalized TR-FRET ligand displacement signal, dose-response replicates (SI Fig 6) (HsProRS; Log[inhibitor] (M) -8.602): 9.54E-01 and 1.01E+00 and 9.27E-01
TR-FRET dose-response, normalized signal (SI Fig 11) (HsProRS; Log[inhibitor] (M) -8.602): 9.70E-01 and 9.45E-01 and 9.16E-01
normalized TR-FRET ligand displacement signal, dose-response replicates (SI Fig 6) (HsProRS; Log[inhibitor] (M) -9.000): 9.66E-01 and 9.16E-01 and 8.85E-01
TR-FRET dose-response, normalized signal (SI Fig 11) (HsProRS; Log[inhibitor] (M) -9.000): 9.54E-01 and 9.83E-01 and 9.88E-01
normalized TR-FRET ligand displacement signal, dose-response replicates (SI Fig 6) (HsProRS; Log[inhibitor] (M) -9.301): 1.02E+00 (2×) and 1.01E+00
TR-FRET dose-response, normalized signal (SI Fig 11) (HsProRS; Log[inhibitor] (M) -9.301): 9.40E-01 and 9.47E-01 and 9.44E-01
